Source: PubChem BioAssay AID179 (DTP/NCI, 2004)
pEC50, pIC50: −log10 of the molar value. Values joined by “and” are separate entries in the source; they are usually repeats but may differ in a detail not shown here. Equal values may be shown once. Active and inactive are the calls of the source.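 The calls were made as follows: active = compounds giving half or more protection of infected cells from virus-caused growth loss, again on retest; inactive = the rest.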 Where a SMILES comes first, the peptide text is derived from it.

Tested on: CEM cells HIV-1 protection, formazan growth assay
Assay: NCI AIDS Antiviral Assay
Details: for pIC50: measured here: growth of uninfected CEM cells
Procedure, shortened: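 Steps: treat uninfected and HIV-1-infected human CEM cells at five drug levels; quantify growth by soluble formazan; retest any compound reaching 50% protection; classify actives from the retest.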

Row | SMILES | pEC50 | pIC50 | outcome
1 | O=[N+]([O-])c1ccc2[nH]nc(OCc3ccccc3Cl)c2c1 | < 3.89 | < 3.89 | –
2 | O=C1CCCCC1CN1CCCCC1 (centres undefined) | – | – | inactive
3 | N=c1c2ncn(C3OC(CO)CC3F)c2ncn1O (centres undefined) | – | – | inactive
4 | CCOC(=O)C1C(c2ccccc2)=C(c2ccccc2)C(c2ccccc2)=C1c1ccccc1 | – | – | inactive
5 | COc1ccc(C(=O)C2COC(=O)C2=O)cc1OC (centres undefined) | < 3.70 | < 3.70 | –
6 | Cc1ccc(C(=O)/C=C2/SS/C(=C/C(=O)c3ccc(C)cc3)S2)cc1 | < 3.70 | < 3.70 | –
7 | COc1cc(/C=C(\C#N)c2ccc([N+](=O)[O-])cc2)ccc1O | < 3.82 | 4.56 | –
8 | O=C1C=C2CCN(C(=O)c3ccccc3)CC2O1 (centres undefined) | < 3.70 | < 3.70 | –
9 | CC1(O)C(=O)OC2CC([C@]3(O)CCC4[C@@H]5C[C@H]6O[C@]67[C@@H](O)C=CC(=O)[C@]7(C)C5CC[C@@]43C)C1(C)C2 (some centres undefined) | < 3.70 | 4.93 | –
10 | N#Cc1cnsc1 | – | – | inactive
11 | CO/N=C(\C(=O)Nc1cncs1)c1csc(N)n1 | < 3.70 | < 3.70 | –
12 | O=C1CSC(=S)N1N1C(=O)CSC1=S | < 3.70 | < 3.70 | –
13 | N#CSC#Cc1ccc(C#CSC#N)cc1 | < 3.70 | 5.62 | –
14 | O=c1/c(=N\Nc2ccccc2)c2cccc3ccc4cccc1c4c32 | < 4.00 | < 4.00 | –
15 | CN1CCCn2c(nc3ccccc3c2=O)C1 | < 2.96 | < 2.96 | –
16 | CCOC(OC1=C(C#N)CCC1)C(CC)[Se]c1ccccc1 (centres undefined) | < 4.15 | 4.28 | –
17 | OC(CBr)C(O)C(O)C(O)CBr (centres undefined) | – | – | inactive
18 | CC1(C)CCCC2(C)[C@@H]1CC[C@@]13CC(=O)[C@@](C)(CC[C@@H]21)C3 (some centres undefined) | < 4.04 | < 4.04 | –
19 | CC(C)c1ccc(/C=C2\CSCC3=C2NC(=S)NC3c2ccc(C(C)C)cc2)cc1 (centres undefined) | < 3.70 | 4.37 | –
20 | CC1(C)OC2[C@@H](CO[C@@]3([C@H]4OC(C)(C)O[C@@H]4CO)OC(C)(C)O[C@@H]23)O1 (some centres undefined) | < 3.70 | < 3.70 | –
21 | C/C(=N\N=C(N)N)C(CN(CC(C)C)CC(C)C)C(=O)Nc1ccc(C)cc1C (centres undefined) | < 4.75 | < 4.75 | –
22 | CC(=O)OCC(=O)[C@@]1(O)CC[C@H]2[C@@H]3C[C@H](C)C4=CC(=O)C=C[C@]4(C)[C@@]3(F)[C@@H](O)C[C@@]21C | – | – | inactive

Row | SMILES | pEC50 | pIC50 | outcome
23 | Cc1cc(C)c2c(=N)c3ccccc3n(CCCCCCO)c2n1 | < 3.70 | 5.86 | –
24 | COc1ccc(CC2C(=O)NC(=O)NC2=O)cc1OC | < 3.70 | < 3.70 | –
25 | CN(C)Cc1cc(C(=O)/C=C/c2ccc([N+](=O)[O-])cc2)cc(CN(C)C)c1O | < 3.70 | 5.55 | –
26 | COc1nc2ncc([C@@H](OC(C)=O)[C@@H](COC(C)=O)OC(C)=O)nc2c(=O)[nH]1 | < 3.70 | < 3.70 | –
27 | O=c1ccn([C@H]2CSC[C@@H](CO)C2)c(=O)[nH]1 | < 2.99 | < 2.99 | –
28 | [B]C(=O)NC(CC(C)C)C(=O)NCC(=O)NC1c2ccsc2C(=O)C1O (centres undefined) (tested in a mixture with another compound) | < 3.70 | < 3.70 | –
29 | O=C1NC(N2CCOCC2)=N/C1=C\c1ccco1 | < 3.70 | < 3.70 | –
30 | O=C1CCC(C(Sc2ccccc2)(Sc2ccccc2)Sc2ccccc2)C1 (centres undefined) | < 3.70 | 4.41 | –
31 | CC1C(=O)CC(c2cccs2)N(N=O)C1c1cccs1 (centres undefined) | < 3.93 | 4.11 | –
32 | CCCC/C(=N\OC(=O)N(C)C)c1ccccc1 | < 3.70 | < 4.00 | –
33 | O=c1c2c3c(sc2nc2n1N=C(c1ccc(Br)cc1)CS2)CCCC3 | < 3.70 | < 3.70 | –
34 | O=c1[nH]nc(Cc2ccccc2)n1/N=C/c1c(O)ccc2ccccc12 | 4.39 | 3.76 | –
35 | Oc1ccc2ccccc2c1OCc1nnc(CCCCCCCCc2nnc(COc3c(O)ccc4ccccc34)n2Nc2ccccc2)n1Nc1ccccc1 | < 5.70 | < 5.70 | –
36 | N#Cc1ccc(-c2nc3c(N)ncnc3o2)cc1 | < 3.70 | < 3.70 | –
37 | CCOC(=O)/C=C\SCC(N)C(=O)O (centres undefined) | < 3.24 | 3.51 | –
38 | Nc1ccc(S(=O)(=O)NCCSSCCNS(=O)(=O)c2ccc(N)cc2)cc1 | < 3.70 | 4.34 | –
39 | O=C1Oc2cc(O)ccc2C2OCNCC12 (centres undefined) | < 3.70 | < 3.70 | –
40 | S=c1[nH]nc2scnn12 | < 3.70 | < 3.70 | –
41 | O=C(Nc1ccccc1)c1cc(S(=O)(=O)NC2=NC(c3ccccc3)c3cc(Cl)ccc3N2)c(SSc2cc(Cl)c(C(=O)Nc3ccccc3)cc2S(=O)(=O)NC2=NC(c3ccccc3)c3cc(Cl)ccc3N2)cc1Cl (centres undefined) | < 3.70 | < 3.70 | –
42 | CC(=O)OC1CC2(C)C(OC(C)=O)CC1C2(C)C (centres undefined) | < 3.70 | < 3.70 | –
43 | Cc1csc2c1-n1cccc1C2=O | < 3.70 | 3.89 | –
44 | CC(C)C(NCc1c(O)ccc2c(-c3ccccc3)cc(=O)oc12)C(=O)O (centres undefined) | < 3.70 | < 3.70 | –

Row | SMILES | pEC50 | pIC50 | outcome
45 | C=C1CC2[C@H](C)C(=O)CCC2(C)C2=C1C1CCC(C(C)CCC(=C)C(C)C(=O)O)C1(C)CC2=O (some centres undefined) | < 3.70 | 4.18 | –
46 | Cn1c(=O)c2c(nnc(-c3ccccc3)[n+]2[O-])n(C)c1=O | < 3.70 | 4.06 | –
47 | O=c1oc2ccccc2c(O)c1C(c1ccc2c(c1)OCO2)N1CCOCC1 (centres undefined) | < 3.70 | < 4.00 | –
48 | c1ccc(C2COC(c3ccc4c(c3)OCO4)O2)cc1 (centres undefined) | < 3.70 | 3.79 | –
49 | Cc1ccc(N=Nc2c(N)nn3cc4c(nc23)CCCCC4)cc1 | < 3.70 | < 3.70 | –
50 | O=C(CP(=O)(O)O)NC(CC(=O)OCc1ccccc1)C(=O)OCc1ccccc1 (centres undefined) | < 4.00 | < 4.00 | –
51 | CCOC(=O)c1cn(C)c(=S)n2c1nc1ccccc12 | < 3.70 | < 3.70 | –
52 | CC1(C)SC2c3ccccc3C(=O)N2C1C(=O)O (centres undefined) | < 3.02 | < 3.02 | –
53 | O=C1CC23CC(=O)CC2(C1)c1ccccc1C3=O (centres undefined) | < 3.41 | < 3.41 | –
54 | O=C(O)CCC1NC(/C(=C/c2ccccc2O)NC(=O)c2ccccc2)OC1=O (centres undefined) | < 3.82 | < 3.82 | –
55 | COc1ccc(Br)c(N/N=C2\CCCNC2=O)c1 | – | – | inactive
56 | NNC(=O)N/N=C1\C(=O)N(c2nccs2)C(=O)C(=O)C1c1nc2ccccc2s1 (centres undefined) | < 5.61 | < 5.61 | –
57 | O=c1cc(-c2ccc(Cl)cc2)oc2cc(OCCCOc3ccc4c(=O)cc(-c5ccc(Cl)cc5)oc4c3)ccc12 | < 6.19 | < 6.19 | –
58 | COc1ccc2cc1Oc1ccc(cc1)C[C@@H]1c3cc(c(OC)cc3CCN1C)Oc1c(OC)c(OC)cc3c1[C@@H](C2)N(C)CC3 | – | – | inactive
59 | Nc1cc(N)c(N=Nc2ccc(CCc3ccc(N=Nc4c(N)cc(N)cc4C(=O)O)cc3S(=O)(=O)O)c(S(=O)(=O)O)c2)c(C(=O)O)c1 | < 2.99 | 3.76 | –
60 | CCCc1cc(=O)oc2c3c(c4c(c12)OC(C)(C)C(O)C4=O)O[C@@H](C)[C@H](C)[C@@H]3O (some centres undefined) | < 3.70 | 4.07 | –
61 | CCc1c(C)c(C#N)c(=S)n(C2OC(CO)C(O)C(O)C2O)c1C (centres undefined) | < 3.70 | < 3.70 | –
62 | COc1ccc(N2C(=O)C3c4[nH]c5ccccc5c4C4CC(C)CC(C)C4C3C2=O)cc1 (centres undefined) | < 5.61 | < 5.61 | –
63 | COC(=O)Nc1nc2ccc(C(=O)c3ccc[nH]3)cc2[nH]1 | < 3.70 | 6.01 and 5.78 | –
64 | O=c1c2[nH]c3cccc(Cl)c3c2cnn1-c1ccc(F)cc1 | < 5.22 | < 5.22 | –
65 | CC1(C(=O)Nc2ccc3ccccc3c2)CC2(C)CC(C)(C1)C(O)NC2=O (centres undefined) | – | – | inactive
66 | COC(=O)c1ccc(N2CC=C(C)C(c3ccc(OC)cc3)O2)cc1 (centres undefined) | < 4.81 | < 4.81 | –

Row | SMILES | pEC50 | pIC50 | outcome
67 | COC(=O)c1cc(C#N)[nH]c1-c1cccs1 | < 3.70 | 4.39 | –
68 | O=C1CCC(=O)N1Sc1ccccc1 | – | – | inactive
69 | OC1CCOc2ccccc21 (centres undefined) | < 3.70 | < 3.70 | –
70 | C[C@]12CCC3[C@@H](CC[C@@H]4/C(=N\O)C(=O)/C(=N\O)C[C@]34C)C1C/C(=N\O)C2=O (some centres undefined) | – | – | inactive
71 | O=C(NCCCN1CC2CCCC2C1)C(C1CCCCC1)C1CCCCC1 (centres undefined) | < 3.70 | 4.94 | –
72 | CCCCCCCCCCCCCCC(O)C[N+](C)(CCO)CCO (centres undefined) | < 3.70 | 5.96 | –
73 | Cc1cc2c(C(C)C)c(O)c(O)c(C=Nc3ccc(-c4ccccc4)cc3)c2c(O)c1-c1c(C)cc2c(C(C)C)c(O)c(O)c(C=Nc3ccc(-c4ccccc4)cc3)c2c1O | 5.79 | < 3.70 | –
74 | c1ccc2c(c1)nc1n2C2CCC(C2)N1 (centres undefined) | < 3.70 | < 3.70 | –
75 | CC1SC(c2ccccc2)N(Nc2c3ccccc3nc3ccccc23)C1=O (centres undefined) | < 4.17 | < 4.17 | –
76 | O=[N+]([O-])c1ccc(N=Nc2ccc(O)c3c(O)cc(S(=O)(=O)O)cc23)cc1S(=O)(=O)O | < 4.00 | < 4.00 | –
77 | CC1(C)NNC(=S)NC1=O | < 2.80 | < 2.80 | –
78 | O=C1OC(c2ccc3c(c2)OCO3)Sc2ccccc21 (centres undefined) | < 4.74 | < 4.74 | –
79 | C/C(=N\NC(N)=S)c1ccc(/C(C)=N/NC(N)=S)cc1 | – | – | inactive
80 | ClCCCCCc1c2nc(c(CCCCCCl)c3ccc([nH]3)c(CCCCCCl)c3ccc([nH]3)c(CCCCCCl)c3nc1C=C3)C=C2 | < 3.70 | < 3.70 | –
81 | O=C1C=C(N2CCCCC2)c2cc(N3CCCCC3)ncc2C1=O | – | – | inactive
82 | CCOC(=O)NC1C2CC(=O)OC(O2)C1OC(C)=O (centres undefined) | < 3.04 | 4.40 | –
83 | Cc1noc(NS(=O)(=O)c2ccc(NC(=O)c3ccccc3SC(=O)CCCC[n+]3ccccc3)cc2)c1C | 4.62 | 4.27 | –
84 | CC(C)CC(NC(=O)CN)C(=O)NC(C)C(=O)NC(C)C(=O)NC(CO)C(=O)NC(C)C(N)=O (centres undefined) (H-GLAASA-NH2; configuration not given here) | – | – | inactive
85 | CCC1(CC)CC(=NNS(=O)(=O)c2ccc(C)cc2)C1 | – | – | inactive
86 | Cc1ccc2c(c1)[nH]c(=S)n2/C=C(/C#N)c1ccc([N+](=O)[O-])cc1 | < 3.70 | < 3.70 | –
87 | C=Cc1ccc(C)[n+](C[Si](C)(C)O[Si](C)(C)C)c1 | < 3.21 | 3.51 | –
